Patent US20150164762A1, “USE OF ETHANOLAMINE PHOSPHATE” (priority 2012, published 2015)

Test system: BEAS-2B
Assay: Comprehensive gene expression analysis with Whole Human Genome DNA microarray after EP treatment
Type: cell-based
Protocol: Cells of the established normal human airway epithelial cell line BEAS-2B were used in the experiment. These cells were expansively cultured in 10% FBS RPMI-1640, and seeded at a density of 1×10^5/cm^2 on a 24-well plate. After 24 hours 0.1% FBS RPMI-1640 was substituted, and EP was administered to a final concentration of 0 or 1 mM (n=4). After 24 hours, the cells were used as the DNA microarray samples. RNA was extracted using a QIAGEN RNeasy Mini Kit. The DNA microarray test was performed using a Whole Human Genome DNA microarray 4×44K (Agilent), and the necessary labeling reagents and the like for the DNA microarray test were all from Agilent. The DNA microarray test data were analyzed statistically with GeneSpring (Agilent) dedicated analysis software, and gene function analysis (Gene Ontology (GO) analysis) was performed based on differential expression. The purpose of the GO analysis is to determine stochastically the degree to which gene sets with statistically significant differential expression correspond to known functional classification gene sets. […] The p-value is calculated according to the following formula.

[1] = probe A_24_P215804, 1 mM EP, 24 h
[2] = probe A_24_P218265, 1 mM EP, 24 h
[3] = probe A_24_P226782, 1 mM EP, 24 h
[4] = probe A_24_P231104, 1 mM EP, 24 h
[5] = probe A_24_P261169, 1 mM EP, 24 h
[6] = probe A_24_P273157, 1 mM EP, 24 h
[7] = probe A_24_P295543, 1 mM EP, 24 h
[8] = probe A_24_P302833, 1 mM EP, 24 h
[9] = probe A_24_P307580, NM_001098523, EP vs control
[10] = probe A_24_P313354, 1 mM EP, 24 h
[11] = probe A_24_P313504, 1 mM EP, 24 h
[12] = probe A_24_P317708, NM_138969, EP vs control
[13] = probe A_24_P319113, 1 mM EP, 24 h
[14] = probe A_24_P319983, 1 mM EP, 24 h
[15] = probe A_24_P388659, 1 mM EP, 24 h
[16] = probe A_24_P389409, NM_006129, EP vs control
[17] = probe A_24_P389457, 1 mM EP, 24 h
[18] = probe A_24_P413470, 1 mM EP, 24 h
[19] = probe A_24_P722216, NM_018706, EP vs control
[20] = probe A_24_P839629, 1 mM EP, 24 h
[21] = probe A_24_P876522, NM_001008397, EP vs control
[22] = probe A_24_P914519, S67289, EP vs control
[23] = probe A_24_P928052, 1 mM EP, 24 h
[24] = probe A_24_P934477, AJ000096, EP vs control
[25] = probe A_24_P935986, 1 mM EP, 24 h
[26] = probe A_24_P937256, 1 mM EP, 24 h
[27] = probe A_24_P937317, NM_001014336, EP vs control
[28] = probe A_24_P3305312, 1 mM EP, 24 h
[29] = probe A_24_P9284523, 1 mM EP, 24 h
[30] = probe A_32_P45009, NM_005896, EP vs control
[31] = probe A_32_P75094, 1 mM EP, 24 h
[32] = probe A_32_P89691, NM_003104, EP vs control
[33] = probe A_32_P94798, 1 mM EP, 24 h
[34] = probe A_32_P171043, 1 mM EP, 24 h
[35] = probe A_32_P230808, 1 mM EP, 24 h

In the case of `NCCOP(=O)(O)O` [EP, Ethanolamine phosphate], the “CKLF expression R*: Ratio to control” value [1] is reported as 1.551 times, the “CKLF expression log2 [ratio]” value [1] is reported as 0.633 and the “TNFRSF10B expression R*: Ratio to control” value [2] is reported as 0.475 times. For the same compound, the “TNFRSF10B expression log2 [ratio]” value [2] was −1.073, the “SOX7 expression R: Ratio to control” value [3] was 0.607 times and the “SOX7 expression log2 [ratio]” value [3] was −0.720. For the same compound, the “LEPR expression R*: Ratio to control” value [4] was 1.659 times, the “LEPR expression log2 [ratio]” value [4] was 0.730 and the “SEMA4D expression R: Ratio to control” value [5] was 0.558 times. The “SEMA4D expression log2 [ratio]” value [5] was −0.842, the “OBSCN expression R: Ratio to control” value [6] was 0.654 times and the “OBSCN expression log2 [ratio]” value [6] was −0.613. The “BLOC1S2 expression R*: Ratio to control” value [7] was 0.384 times, the “BLOC1S2 expression log2 [ratio]” value [7] was −1.381 and the “APPL1 expression R*: Ratio to control” value [8] was 1.723 times. The “APPL1 expression log2 [ratio]” value [8] was 0.785, the “HTATIP2 gene expression, R* ratio to control” value [9] was 1.821 times and the “HTATIP2 gene expression, log2 [ratio]” value [9] was 0.865. For the same compound, the “NR2F2 expression R*: Ratio to control” value [10] was 1.746 times, the “NR2F2 expression log2 [ratio]” value [10] was 0.804 and the “PLK1 expression R*: Ratio to control” value [11] was 1.939 times. For the same compound, the “PLK1 expression log2 [ratio]” value [11] was 0.955, the “SDR16C5 gene expression, R* ratio to control” value [12] was 2.349 times and the “SDR16C5 gene expression, log2 [ratio]” value [12] was 1.232. For the same compound, the “P2RX7 expression R: Ratio to control” value [13] was 0.586 times, the “P2RX7 expression log2 [ratio]” value [13] was −0.772 and the “BCL10 expression R*: Ratio to control” value [14] was 0.571 times. The “BCL10 expression log2 [ratio]” value [14] was −0.310, the “ARHGAP24 expression R*: Ratio to control” value [15] was 1.745 times and the “ARHGAP24 expression log2 [ratio]” value [15] was 0.803. The “BMP1 gene expression, R* ratio to control” value [16] was 0.650 times, the “BMP1 gene expression, log2 [ratio]” value [16] was −0.622 and the “CDKN1A expression R*: Ratio to control” value [17] was 0.294 times. The “CDKN1A expression log2 [ratio]” value [17] was −1.768, the “TP73 expression R*: Ratio to control” value [18] was 0.482 times and the “TP73 expression log2 [ratio]” value [18] was −1.054. The “DHTKD1 gene expression, R* ratio to control” value [19] was 1.429 times, the “DHTKD1 gene expression, log2 [ratio]” value [19] was 0.515 and the “ZMAT3 expression R*: Ratio to control” value [20] was 0.654 times. The “ZMAT3 expression log2 [ratio]” value [20] was −0.612, the “GPX8 gene expression, R* ratio to control” value [21] was 1.602 times and the “GPX8 gene expression, log2 [ratio]” value [21] was 0.680. For the same compound, the “CYBB gene expression, R* ratio to control” value [22] was 1.958 times, the “CYBB gene expression, log2 [ratio]” value [22] was 0.968 and the “NRP1 expression R*: Ratio to control” value [23] was 1.990 times. The “NRP1 expression log2 [ratio]” value [23] was 0.993, the “CBR3 gene expression, R* ratio to control” value [24] was 2.429 times and the “CBR3 gene expression, log2 [ratio]” value [24] was 1.281. For the same compound, the “BCAT1 expression R*: Ratio to control” value [25] was 1.721 times, the “BCAT1 expression log2 [ratio]” value [25] was 0.783 and the “RELA expression R*: Ratio to control” value [26] was 1.611 times. For the same compound, the “RELA expression log2 [ratio]” value [26] was 0.688, the “IL31 gene expression, R* ratio to control” value [27] was 0.296 times and the “IL31 gene expression, log2 [ratio]” value [27] was −1.758. The “BBC3 expression R*: Ratio to control” value [28] was 0.366 times, the “BBC3 expression log2 [ratio]” value [28] was −1.452 and the “MAP3K10 expression R*: Ratio to control” value [29] was 0.570 times. For the same compound, the “MAP3K10 expression log2 [ratio]” value [29] was −0.810, the “IDH1 gene expression, R* ratio to control” value [30] was 1.486 times and the “IDH1 gene expression, log2 [ratio]” value [30] was 0.571. The “A1FM2 expression R*: Ratio to control” value [31] was 0.399 times, the “A1FM2 expression log2 [ratio]” value [31] was −1.327 and the “SORD gene expression, R* ratio to control” value [32] was 1.506 times. The “SORD gene expression, log2 [ratio]” value [32] was 0.590, the “ANXA2 expression R*: Ratio to control” value [33] was 1.614 times and the “ANXA2 expression log2 [ratio]” value [33] was 0.691. The “CCBE1 expression R*: Ratio to control” value [34] was 1.890 times, the “CCBE1 expression log2 [ratio]” value [34] was 0.918 and the “KNG1 expression R*: Ratio to control” value [35] was 0.358 times. The “KNG1 expression log2 [ratio]” value [35] was −1.484, the FAS expression (probe A—23_P63896, 1 mM EP, 24 h) was 0.36 fold and the “catalase (CAT) expression” value (probe A—23_P105138, 1 mM EP, 24 h) was “increased expression”. For the same compound, the “NADPH:quinone reductase-1 (NQ01) expression” value (probe A—23_P206661, 1 mM EP, 24 h) was “increased expression” and the “thioredoxin (TXN) expression increase” value (probe A—24_P175519, 1 mM EP, 24 h) was 1.4 times.
